Experiments:
DNAPK = DNAPK (Homo sapiens (Human), UniProt P78527); experiment: DNAPK cellular potency assay (DNA-PK cell), pS2056-DNAPK ELISA in irradiated A549 cells; assay type: cell-based; conditions: 8 Gy radiation, arithmetic mean of two or more experiments, read-out: DNA-PK cell pIC50 (converted)
Procedure: The DNAPK cell ELISA assay was performed in the A549 cell line. A549 cells were cultured in cell media composed of MEM-F12 (Minimum Essential Medium F12 Sigma #D6421), 10% (v/v) Foetal Calf Serum and 1% (v/v) 200 mM L-Glutamine. […] The following day the Greiner ELISA plates were washed 3× with PBS-T and blocked with 3% BSA/PBS for 2 h, before a further 3× wash with PBS-T.
The cell plates were then incubated for 1 h at 37° C. before receiving a radiation dose of 8 Gy (XRAD 320, table height 65). The cells were incubated for a further 1 h before removal of cell media. […] Cell lysates ([…]) were transferred to the DNAPK antibody-coated ELISA plates using a CyBio Felix liquid handling platform, and ELISA plates were incubated at 4° C. overnight.
The following day, ELISA plates were washed 3× with PBS-T and dispensed with in-house pS2056-DNAPK antibody (0.5 μg/mL in 3% BSA/PBS) at 20 ul/well.
The fluorescence intensity of individual wells was determined using a PerkinElmer EnVision plate reader.
Data was analysed and IC50 values were calculated using Genedata Screener® software (Genedata, Inc., Basel, Switzerland).

AURKB (Aurora B) = AURKB (Aurora B) (Homo sapiens (Human), UniProt Q96GD4); experiment: Aurora-B enzyme assay (Z'-LYTE); assay type: biochemical; conditions: 75 μM ATP; arithmetic mean of two or more experiments
Sequence of AURKB (Aurora B) (Q96GD4 whole entry): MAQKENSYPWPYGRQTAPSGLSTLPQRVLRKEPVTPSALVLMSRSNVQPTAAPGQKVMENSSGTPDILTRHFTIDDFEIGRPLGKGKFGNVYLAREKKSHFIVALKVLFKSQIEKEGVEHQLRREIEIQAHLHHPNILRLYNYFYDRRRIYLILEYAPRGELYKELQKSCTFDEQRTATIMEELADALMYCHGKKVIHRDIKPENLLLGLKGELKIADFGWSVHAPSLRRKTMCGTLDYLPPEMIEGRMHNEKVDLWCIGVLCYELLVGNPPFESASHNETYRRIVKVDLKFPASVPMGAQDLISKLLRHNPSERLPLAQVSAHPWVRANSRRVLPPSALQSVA
Procedure: (§1) The inhibitory activity of compounds against AURKA, AURKB, JAK1, JAK2 and JAK3 was determined in Z′-LYTE® assays run by ThermoFisher Scientific as part of their SelectScreen® Biochemical Kinase Profiling Service. The Z′-LYTE® biochemical assay format employs a fluorescence-based, coupled-enzyme format and is based on the differential sensitivity of phosphorylated and non-phosphorylated peptides to proteolytic cleavage. The peptide substrate is labeled with two fluorophores—one at each end—that make up a FRET pair. In the primary reaction, the kinase transfers the gamma-phosphate of ATP to a single tyrosine, serine or threonine residue in a synthetic FRET-peptide. In the secondary reaction, a site-specific protease recognises and cleaves non-phosphorylated FRET-peptides. Phosphorylation of FRET-peptides suppresses cleavage by the Development Reagent. Cleavage disrupts FRET between the donor (i.e., coumarin) and acceptor (i.e., fluorescein) fluorophores on the FRET-peptide, whereas uncleaved, phosphorylated FRET-peptides maintain FRET. A ratiometric method, which calculates the ratio (the Emission Ratio) of donor emission to acceptor emission after excitation of the donor fluorophore at 400 nm, is used to quantitate reaction progress. Both cleaved and uncleaved FRET-peptides contribute to the fluorescence signals and therefore to the Emission Ratio. The extent of phosphorylation of the FRET-peptide can be calculated from the Emission Ratio.
(§2) 10 point three-fold dilution compound concentration-response curves, with a top concentration of 10 μM were generated from 10 mM stocks of compound solubilised in DMSO. All assays were performed in black, non-binding, low volume Corning 384-well plates (cat. #4514, Corning), in a total reaction volume of 10 μL and 1% (v/v) final DMSO concentration. […] The kinase reaction was then quenched by the addition of 5 μL of Development Reagent (ThermoFisher Scientific proprietary). […] IC50 values were calculated using XLfit software (IDBS Ltd, Surrey, UK), with the curve fit to model number 205 (sigmoidal dose-response model).
Aurora B (AurB): The 2×AURKB (Aurora B)/Ser/Thr 01 (ThermoFisher Scientific proprietary) mixture was prepared in 50 mM HEPES pH 7.5, 0.01% BRIJ-35, 10 mM MgCl2, 1 mM EGTA. […] After the 1 hour Kinase Reaction incubation, 5 μL of a 1:4096 dilution of Development Reagent was added.

AURKA (Aurora A) = AURKA (Aurora A) (Homo sapiens (Human), UniProt O14965); experiment: Aurora-A enzyme assay (Z'-LYTE); assay type: biochemical; conditions: 10 μM ATP; arithmetic mean of two or more experiments
Sequence of AURKA (Aurora A) (O14965 whole entry): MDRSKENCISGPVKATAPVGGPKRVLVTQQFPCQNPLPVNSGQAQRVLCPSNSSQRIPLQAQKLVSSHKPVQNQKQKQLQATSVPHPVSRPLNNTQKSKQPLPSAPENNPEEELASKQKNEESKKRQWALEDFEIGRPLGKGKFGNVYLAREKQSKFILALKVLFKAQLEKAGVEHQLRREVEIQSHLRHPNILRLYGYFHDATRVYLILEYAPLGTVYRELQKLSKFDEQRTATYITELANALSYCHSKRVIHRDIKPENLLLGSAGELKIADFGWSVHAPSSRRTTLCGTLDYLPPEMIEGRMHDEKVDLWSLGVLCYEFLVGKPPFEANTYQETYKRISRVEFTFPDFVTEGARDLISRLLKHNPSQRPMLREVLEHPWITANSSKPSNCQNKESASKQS
Procedure: as §1, §2
Aurora A (AurA): The 2×AURKA (Aurora A)/Ser/Thr 01 (ThermoFisher Scientific proprietary) mixture was prepared in 50 mM HEPES pH 7.5, 0.01% BRIJ-35, 10 mM MgCl2, 1 mM EGTA. […] After the 1 hour Kinase Reaction incubation, 5 μL of a 1:4096 dilution of Development Reagent was added.

TTK = TTK (Homo sapiens (Human), UniProt P33981); experiment: TTK enzyme assay (LanthaScreen Eu Kinase Binding); conditions: arithmetic mean of two or more experiments
Sequence of TTK (P33981 whole entry): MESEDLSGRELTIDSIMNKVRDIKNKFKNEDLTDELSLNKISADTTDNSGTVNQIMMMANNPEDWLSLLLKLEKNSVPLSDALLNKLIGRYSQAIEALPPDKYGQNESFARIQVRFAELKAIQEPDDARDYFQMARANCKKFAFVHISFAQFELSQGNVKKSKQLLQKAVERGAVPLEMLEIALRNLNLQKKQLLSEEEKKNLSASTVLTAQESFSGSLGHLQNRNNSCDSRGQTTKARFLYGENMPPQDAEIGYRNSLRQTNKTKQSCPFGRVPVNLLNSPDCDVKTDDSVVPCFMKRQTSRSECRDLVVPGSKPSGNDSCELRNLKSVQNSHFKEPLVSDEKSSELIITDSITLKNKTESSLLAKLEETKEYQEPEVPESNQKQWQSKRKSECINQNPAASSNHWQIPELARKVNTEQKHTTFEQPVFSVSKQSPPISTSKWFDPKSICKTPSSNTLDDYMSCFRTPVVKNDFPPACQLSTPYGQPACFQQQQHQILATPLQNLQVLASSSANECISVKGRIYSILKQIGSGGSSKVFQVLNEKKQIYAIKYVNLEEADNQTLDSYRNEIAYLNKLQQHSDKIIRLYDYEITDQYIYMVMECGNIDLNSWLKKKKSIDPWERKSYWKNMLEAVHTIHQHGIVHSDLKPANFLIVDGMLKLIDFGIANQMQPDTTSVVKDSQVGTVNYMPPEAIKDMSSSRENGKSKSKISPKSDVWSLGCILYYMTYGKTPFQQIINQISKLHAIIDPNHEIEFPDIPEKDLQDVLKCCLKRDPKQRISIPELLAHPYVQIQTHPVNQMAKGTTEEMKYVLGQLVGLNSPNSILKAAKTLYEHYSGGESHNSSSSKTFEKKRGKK
Procedure: The inhibitory activity of compounds against TTK was determined in a LanthaScreen® Eu Kinase Binding assay run by ThermoFisher Scientific as part of their SelectScreen® Biochemical Kinase Profiling Service. The LanthaScreen® Eu Kinase Binding assay format uses binding of an Alexa Fluor® conjugate or “tracer” to a kinase, which is detected by addition of a Eu-labeled anti-tag antibody. […] The degree of FRET measured in the assay is used to determine the binding of a compound.
10 point three-fold dilution compound concentration-response curves, with a top concentration of 10 μM were generated from 10 mM stocks of compound solubilised in DMSO. All assays were performed in white, low volume Greiner 384-well plates (cat. #784207, Greiner), in a total reaction volume of 16 μL and 1% (v/v) final DMSO concentration. […] Plates were then read using a fluorescence plate reader. IC50 values were calculated using XLfit software (IDBS Ltd, Surrey, UK), with the curve fit to model number 205 (sigmoidal dose-response model).

JAK3 = JAK3 (Homo sapiens (Human), UniProt P52333); experiment: JAK3 enzyme assay (Z'-LYTE); assay type: biochemical; conditions: 10 μM ATP; arithmetic mean of two or more experiments
Sequence of JAK3 (P52333 whole entry): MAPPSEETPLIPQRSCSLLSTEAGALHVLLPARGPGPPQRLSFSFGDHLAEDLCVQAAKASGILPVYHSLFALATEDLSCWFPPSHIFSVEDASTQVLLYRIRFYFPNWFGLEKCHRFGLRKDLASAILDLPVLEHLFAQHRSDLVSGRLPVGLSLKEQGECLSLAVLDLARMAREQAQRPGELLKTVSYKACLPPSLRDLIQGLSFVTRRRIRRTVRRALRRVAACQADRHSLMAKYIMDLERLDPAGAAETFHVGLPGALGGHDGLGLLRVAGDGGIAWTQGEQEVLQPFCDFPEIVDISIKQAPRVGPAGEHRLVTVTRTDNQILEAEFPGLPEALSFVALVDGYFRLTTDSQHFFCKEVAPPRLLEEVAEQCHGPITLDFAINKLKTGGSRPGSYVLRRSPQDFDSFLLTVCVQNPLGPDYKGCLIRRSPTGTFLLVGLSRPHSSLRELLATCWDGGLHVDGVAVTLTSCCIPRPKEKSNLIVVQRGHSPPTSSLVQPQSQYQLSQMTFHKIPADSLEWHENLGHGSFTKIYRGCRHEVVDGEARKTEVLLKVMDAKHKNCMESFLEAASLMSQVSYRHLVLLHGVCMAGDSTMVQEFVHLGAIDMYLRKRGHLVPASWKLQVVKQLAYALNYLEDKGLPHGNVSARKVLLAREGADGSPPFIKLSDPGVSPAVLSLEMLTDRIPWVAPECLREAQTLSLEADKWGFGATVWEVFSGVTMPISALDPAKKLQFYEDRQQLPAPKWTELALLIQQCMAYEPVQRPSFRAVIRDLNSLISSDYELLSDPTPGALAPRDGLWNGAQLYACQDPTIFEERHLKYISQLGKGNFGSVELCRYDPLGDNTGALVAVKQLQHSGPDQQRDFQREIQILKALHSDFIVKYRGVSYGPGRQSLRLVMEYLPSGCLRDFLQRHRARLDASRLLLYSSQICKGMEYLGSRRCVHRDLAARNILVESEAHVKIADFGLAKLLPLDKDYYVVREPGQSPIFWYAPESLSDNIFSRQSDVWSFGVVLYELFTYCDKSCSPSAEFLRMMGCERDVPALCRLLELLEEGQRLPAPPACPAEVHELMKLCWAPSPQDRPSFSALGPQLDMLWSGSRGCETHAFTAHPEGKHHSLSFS
Procedure: as §1, §2
JAK3: The 2×JAK3/Tyr 06 (ThermoFisher Scientific proprietary) mixture was prepared in 50 mM HEPES pH 7.5. 0.01% BRIJ-35, 10 mM MgCl2, 1 mM EGTA. […] After the 1 hour Kinase Reaction incubation, 5 μL of a 1:128 dilution of Development Reagent was added.

JAK1 = JAK1 (Homo sapiens (Human), UniProt P23458); experiment: JAK1 enzyme assay (Z'-LYTE); assay type: biochemical; conditions: 75 μM ATP; arithmetic mean of two or more experiments
Sequence of JAK1 (P23458 whole entry): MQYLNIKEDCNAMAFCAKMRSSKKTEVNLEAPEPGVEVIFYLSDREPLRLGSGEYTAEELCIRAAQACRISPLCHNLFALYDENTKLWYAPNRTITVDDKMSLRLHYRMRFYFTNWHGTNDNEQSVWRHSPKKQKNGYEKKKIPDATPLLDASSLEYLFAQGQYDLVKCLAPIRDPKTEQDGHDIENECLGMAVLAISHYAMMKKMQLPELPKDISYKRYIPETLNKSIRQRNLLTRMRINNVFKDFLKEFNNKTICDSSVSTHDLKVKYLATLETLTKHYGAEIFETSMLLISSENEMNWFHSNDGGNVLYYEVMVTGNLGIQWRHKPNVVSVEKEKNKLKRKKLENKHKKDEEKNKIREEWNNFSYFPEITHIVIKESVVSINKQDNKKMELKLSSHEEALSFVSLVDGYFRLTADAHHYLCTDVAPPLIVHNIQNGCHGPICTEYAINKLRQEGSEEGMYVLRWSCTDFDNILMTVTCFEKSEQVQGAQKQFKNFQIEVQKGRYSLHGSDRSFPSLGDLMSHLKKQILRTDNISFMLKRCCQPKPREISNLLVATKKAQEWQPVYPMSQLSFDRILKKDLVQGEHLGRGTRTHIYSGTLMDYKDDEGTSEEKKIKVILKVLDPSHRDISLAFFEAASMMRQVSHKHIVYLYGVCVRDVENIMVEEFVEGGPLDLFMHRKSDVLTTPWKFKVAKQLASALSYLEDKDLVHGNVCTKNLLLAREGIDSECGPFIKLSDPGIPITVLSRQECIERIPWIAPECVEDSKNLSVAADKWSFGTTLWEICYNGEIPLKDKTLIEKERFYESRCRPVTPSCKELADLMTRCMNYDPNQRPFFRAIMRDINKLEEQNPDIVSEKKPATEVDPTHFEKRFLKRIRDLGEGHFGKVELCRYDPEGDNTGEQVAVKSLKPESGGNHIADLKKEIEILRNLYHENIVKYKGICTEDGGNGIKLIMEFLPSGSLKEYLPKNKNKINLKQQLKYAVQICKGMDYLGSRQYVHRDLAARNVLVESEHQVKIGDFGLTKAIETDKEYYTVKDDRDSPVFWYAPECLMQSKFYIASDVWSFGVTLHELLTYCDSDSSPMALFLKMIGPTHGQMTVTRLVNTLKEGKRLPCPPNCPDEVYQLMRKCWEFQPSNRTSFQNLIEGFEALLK
Procedure: as §1, §2
JAK1: The 2×JAK/Tyr 06 (ThermoFisher Scientific proprietary) mixture was prepared in 50 mM HEPES pH 6.5, 0.01% BRIJ-35, 10 mM MgCl2, 1 mM EGTA, 0.02% NaN3. […] After the 1 hour Kinase Reaction incubation, 5 μL of a 1:128 dilution of Development Reagent was added.

JAK2 = JAK2 (Homo sapiens (Human), UniProt O60674); experiment: JAK2 enzyme assay (Z'-LYTE); assay type: biochemical; conditions: 25 μM ATP; arithmetic mean of two or more experiments
Sequence of JAK2 (O60674 whole entry): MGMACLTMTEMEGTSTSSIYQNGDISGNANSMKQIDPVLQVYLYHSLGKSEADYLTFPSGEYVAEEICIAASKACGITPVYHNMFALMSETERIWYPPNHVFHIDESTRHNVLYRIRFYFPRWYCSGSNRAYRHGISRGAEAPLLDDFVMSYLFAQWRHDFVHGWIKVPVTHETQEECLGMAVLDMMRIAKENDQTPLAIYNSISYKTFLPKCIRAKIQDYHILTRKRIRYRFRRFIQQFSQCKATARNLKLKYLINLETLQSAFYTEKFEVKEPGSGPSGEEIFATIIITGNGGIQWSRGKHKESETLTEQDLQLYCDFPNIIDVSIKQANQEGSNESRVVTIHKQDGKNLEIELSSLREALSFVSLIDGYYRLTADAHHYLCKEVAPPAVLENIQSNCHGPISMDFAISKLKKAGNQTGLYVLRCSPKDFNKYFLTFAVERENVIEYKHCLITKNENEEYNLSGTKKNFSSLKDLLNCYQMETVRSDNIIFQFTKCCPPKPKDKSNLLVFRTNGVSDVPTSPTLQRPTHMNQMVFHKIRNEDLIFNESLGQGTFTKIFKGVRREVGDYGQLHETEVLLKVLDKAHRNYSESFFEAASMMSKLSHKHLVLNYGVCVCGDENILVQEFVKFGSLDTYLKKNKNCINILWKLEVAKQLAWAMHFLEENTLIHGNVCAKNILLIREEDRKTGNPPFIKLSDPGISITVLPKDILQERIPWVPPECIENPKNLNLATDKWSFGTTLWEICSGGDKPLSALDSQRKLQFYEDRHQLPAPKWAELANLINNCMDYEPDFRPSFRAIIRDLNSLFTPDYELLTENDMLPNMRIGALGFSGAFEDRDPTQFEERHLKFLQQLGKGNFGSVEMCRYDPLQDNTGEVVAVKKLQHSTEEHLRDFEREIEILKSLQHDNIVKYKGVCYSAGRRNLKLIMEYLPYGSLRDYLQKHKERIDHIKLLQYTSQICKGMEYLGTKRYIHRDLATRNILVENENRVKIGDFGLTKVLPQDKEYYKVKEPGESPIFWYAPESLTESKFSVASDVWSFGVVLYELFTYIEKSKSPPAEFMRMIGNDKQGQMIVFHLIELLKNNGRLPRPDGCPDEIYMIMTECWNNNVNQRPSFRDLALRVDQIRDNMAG
Procedure: as §1, §2
JAK2: The 2×JAK2/Tyr 06 (ThermoFisher Scientific proprietary) mixture was prepared in 50 mM HEPES pH 7.5, 0.01% BRIJ-35, 10 mM MgCl2, 1 mM EGTA. […] After the 1 hour Kinase Reaction incubation, 5 μL of a 1:128 dilution of Development Reagent was added.

Discrete PK Dog = conditions: beagle, iv, 0.5 mg/kg
Discrete PK Rat = assay type: in vivo, han wistar rats; conditions: Han Wistar, plasma, iv, read-out: volume of distribution (V)

Compound | IC50 (DNAPK) [µM] | AurB enz pIC50 (AURKB (Aurora B)) | AurA enz pIC50 (AURKA (Aurora A)) | TTK enz pIC50 (TTK) | JAK3 enz pIC50 (JAK3) | JAK1 enz pIC50 (JAK1) | JAK2 enz pIC50 (JAK2) | also measured
Cc1cc2ncccc2cc1Nc1ncc2c(n1)n([C@H]1CC[C@@](C)(O)CC1)c(=O)n2C [Example 14, 9-((1s,4s)-4-hydroxy-4-methylcyclohexyl)-7-methyl-2-((7-methylquinolin-6-yl)amino)-7,9-dihydro-8H-purin-8-one] | 0.01 | – | – | – | – | – | – | –
Cc1cc2nnccc2cc1Nc1ncc2c(n1)n([C@H]1CC[C@@](C)(O)CC1)c(=O)n2C [Example 16, 9-((1s,4s)-4-hydroxy-4-methylcyclohexyl)-7-methyl-2-((7-methylcinnolin-6-yl)amino)-7,9-dihydro-8H-purin-8-one] | 0.0158 | – | – | – | – | – | – | –
Cc1cc2nnccc2cc1Nc1ncc2c(n1)n([C@H]1CC[C@](C)(O)CC1)c(=O)n2C [Example 17, 9-((1r,4r)-4-hydroxy-4-methylcyclohexyl)-7-methyl-2-((7-methylcinnolin-6-yl)amino)-7,9-dihydro-8H-purin-8-one] | 0.1 | – | – | – | – | – | – | –
Cc1cc2nnccc2cc1Nc1ncc2c(n1)n(C1CCOCC1)c(=O)n2C [Example 29, 7-methyl-2-((7-methylcinnolin-6-yl)amino)-9-(tetrahydro-2H-pyran-4-yl)-7,9-dihydro-8H-purin-8-one] | – | <5 | <5 | 6.4 | <5 | <5 | <5 | –
Cc1cc2nnccc2cc1Nc1ncc2c(n1)n(C1CCN(C)CC1)c(=O)n2C [Example 43, 7-methyl-2-((7-methylcinnolin-6-yl)amino)-9-(1-methylpiperidin-4-yl)-7,9-dihydro-8H-purin-8-one] | – | <5 | <5 | <5 | <5 | <5 | <5 | –
Cc1cc2ncccc2cc1Nc1ncc2c(n1)n(C1CCN(C)CC1)c(=O)n2C [Example 44, 7-methyl-9-(1-methylpiperidin-4-yl)-2-((7-methylquinolin-6-yl)amino)-7,9-dihydro-8H-purin-8-one] | – | – | – | – | – | – | – | Vd (Discrete PK Dog; plasma): 7.8 L/kg; Vd (Discrete PK Rat): 3.4 L/kg
Cc1cc2ncccc2cc1Nc1ncc2c(n1)n([C@@H]1CNC[C@H]1F)c(=O)n2C [Example 52, 9-((3R,4R)-4-fluoropyrrolidin-3-yl)-7-methyl-2-((7-methylquinolin-6-yl)amino)-7,9-dihydro-8H-purin-8-one] | – | – | – | – | – | – | – | Vd (Discrete PK Dog; in vivo): 5.4 L/kg; Vd (Discrete PK Rat): 1.65 L/kg

Now from value to compound, other results behind:

IC50 (DNAPK) [µM] | AurB enz pIC50 (AURKB (Aurora B)) | AurA enz pIC50 (AURKA (Aurora A)) | TTK enz pIC50 (TTK) | JAK3 enz pIC50 (JAK3) | JAK1 enz pIC50 (JAK1) | JAK2 enz pIC50 (JAK2) | Compound | also measured
0.0158 | – | – | – | – | – | – | Cc1cc2ncccc2cc1Nc1ncc2c(n1)n([C@H]1CC[C@](C)(O)CC1)c(=O)n2C [Example 15, 9-((1r,4r)-4-hydroxy-4-methylcyclohexyl)-7-methyl-2-((7-methylquinolin-6-yl)amino)-7,9-dihydro-8H-purin-8-one] | –
– | <5 | <5 | 6.4 | <5 | <5 | <5 | Cc1cc2ncccc2cc1Nc1ncc2c(n1)n(C1CCOCC1)c(=O)n2C [Example 30, 7-methyl-2-((7-methylquinolin-6-yl)amino)-9-(tetrahydro-2H-pyran-4-yl)-7,9-dihydro-8H-purin-8-one] | –
– | <5 | <5 | <5.1 | <5 | <5 | <5 | Cc1cc2ncccc2cc1Nc1ncc2c(n1)n([C@@H]1CCN(C)C1)c(=O)n2C [Example 41, (R)-7-methyl-9-(1-methylpyrrolidin-3-yl)-2-((7-methylquinolin-6-yl)amino)-7,9-dihydro-8H-purin-8-one] | –
– | <5 | <5 | <5.1 | <5 | <5 | <5 | Cc1cc2ncccc2cc1Nc1ncc2c(n1)n([C@H]1CCN(C)C1)c(=O)n2C [Example 42, (S)-7-methyl-9-(1-methylpyrrolidin-3-yl)-2-((7-methylquinolin-6-yl)amino)-7,9-dihydro-8H-purin-8-one] | –
